Drawing on patent US9045563B2, “CXC chemokine receptor 4 (CXCR4) antagonistic polypeptide” (priority 2007, dated 2015), this text covers IC50 for 1 sequence.

What is called IC50 is the point on the concentration scale where inhibition reaches its midpoint.

One assay deals with X4 tropic HIV-1 NL4-3. To be noted: TZM-bl cells. How it is done:
HIV inhibition test were performed by seeding 4000 P4-R5 MAGI cells (P. Charneau et al., J. Mol. Biol. 241: 651, 1994) in 100 μl of DMEM (10% FCS, 100 U/ml penicillin G, and 100 μg/ml streptomycin sulfate). P4-R5 cells are stably transfected with an LTR-lacZ cassette and upon successful infection by HIV-1 will express—galactosidase in a Tat-dependent manner, which can be detected in a chemiluminescence test. On the following day, aliquots of the fractions were added. Therefor the lyophilized fractions were resuspended in 80 μl of DMEM, and 25 μl each thereof was pipetted to P4-R5 cells, incubated at 37° C. for 1 hour and subsequently infected with HIV-1 NL4—3 (1 ng of p24 antigen). Virus stocks were obtained by transient infection of 293T cells with proviral DNA by the calcium phosphate method (CalPhos™ Mammalian Transfection Kit, Clontech). Virus stocks were harvested 48 hours post transfection, filtrated and used for infection. Three days post infection, β-galactosidase activity in infected P4-R5 cells was detected using GalScreen assay (TROPIX) as recommended by the manufacturer. Briefly, supernatant was removed, 40 μl of a 1:1 dilution of PBS/GalScreen+substrate was added, followed by incubation at room temperature for 30 min. Then 30 μl of the lysates were transferred into 96 well lumiplates. Subsequently, the lumines-cence was detected as relative light units per second in a luminometer (Berthold, ORION). From all measurements, the mean β-galactosidase background activity of non-infected control cells was subtracted. % infection values for each infection were calculated relative to no peptide containing controls (100%). The enzyme activities in measurements without ALB408-423 were set at 100%, and all other values were based thereon. The final purification (7th step) was examined under exactly the same conditions in TZM-bl cells (X. Wei et al., Antimicrob. Agents Chemother. 46: 1896, 2002).
1.6 mg of fraction 31 from the 7th step in Example 1 was dissolved in 160 μl of DMEM. Subsequently, 10 μl of serial dilutions of fraction 31 containing ALB408-423 were added to 60 μl of TZM-bl cells (60 μl) and infected with 1 ng of p24 antigen HIV-1 NL4—3 in a total volume of 100 μl. Three days later, infection rates were determined in a GalScreen assay (see Example 1).
5000 TZM-bl cells were seeded in 100 μl of DMEM (10% FCS, 100 U/ml of penicillin G and 100 μg/ml of streptomycin sulfate). ALB408-423 was dissolved in PBS (10 mg/ml). One day later, 20 μl serial dilutions of ALB408-423 in PBS were added to cells and cells were subsequently infected with 0.5 ng of p24 antigen HIV-1 in a total volume of 200 μl. HIV-1 molecular clones differing in coreceptor tropism were used and generated as described (Papkalla et al., J. Virol. 76: 8455-9, 2002).
Table 1. Antiviral activity of various ALB fragments against X4 tropic HIV-1 NL4-3 infection. TZM-bl cells containing serial dilutions of synthetic peptides were infected with HIV-1 NL4-3 and infection rates were determined and calculated as described in example 1 and 2 at two days post infection. IC50 values were determined using the GraphPad Prism software package.
Various ALB408-423 derivatives containing N or C terminal deletions or amino acid substitutions (Table 1) were chemically synthesized and lyophilized peptides were dissolved in PBS. The antiviral activity was analyzed in TZM-bl cells using X4 tropic HIV-1 NL4-3 as described (example 4).

The test system of another assay is X4 tropic HIV-2ROD10. To be noted: read-out: IC50, X4 tropic HIV-2 infection (Example 5), TZM-bl cells.

Read-outs that look alike come from different tables or passages of the source. Ends that are not written are not given here.

Procedure for X4 tropic HIV-2ROD10: Two days later infection rates were determined and calculated as described.
After three days infection rates were determined using the Gal Screen assay. Shown are mean values±standard deviation derived from triplicate measurements.

Consider “LVRYTKKVPQVSTPTL [ALB408-423, LVRYTKKVPQVSTPTL]”, for which the IC50 is 10 to 20 µM with X4 tropic HIV-1 NL4-3 (read-out: IC50, X4 tropic HIV-1 infection (Example 5), HIV-1 NL4-3); 7.6 ± 1.2 µM with X4 tropic HIV-1 NL4-3 (read-out: IC50 ± SEM, X4 tropic HIV-1 NL4-3, two days post infection, synthetic peptides); 10 to 20 µM in the assay on X4 tropic HIV-2ROD10.
